The target of one assay is Acetylcholinesterase (Homo sapiens, UniProt P22303). Type of assay: functional.
The target in a further assay is T1, Adenosine receptor A3 (Homo sapiens, UniProt P0DMS8).
T1 sequence (P0DMS8 whole entry): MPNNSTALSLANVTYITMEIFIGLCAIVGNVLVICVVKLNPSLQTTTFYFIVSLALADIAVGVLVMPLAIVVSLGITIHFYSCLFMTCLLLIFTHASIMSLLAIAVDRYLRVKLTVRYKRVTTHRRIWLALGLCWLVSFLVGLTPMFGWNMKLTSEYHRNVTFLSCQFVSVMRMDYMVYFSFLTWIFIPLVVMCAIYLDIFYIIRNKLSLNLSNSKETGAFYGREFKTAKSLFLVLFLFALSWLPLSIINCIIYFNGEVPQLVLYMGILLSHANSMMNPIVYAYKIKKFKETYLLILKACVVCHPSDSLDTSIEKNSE

Assay [1] addresses T2, Alpha-2A adrenergic receptor (Homo sapiens, UniProt P08913).
T2 sequence (P08913 whole entry): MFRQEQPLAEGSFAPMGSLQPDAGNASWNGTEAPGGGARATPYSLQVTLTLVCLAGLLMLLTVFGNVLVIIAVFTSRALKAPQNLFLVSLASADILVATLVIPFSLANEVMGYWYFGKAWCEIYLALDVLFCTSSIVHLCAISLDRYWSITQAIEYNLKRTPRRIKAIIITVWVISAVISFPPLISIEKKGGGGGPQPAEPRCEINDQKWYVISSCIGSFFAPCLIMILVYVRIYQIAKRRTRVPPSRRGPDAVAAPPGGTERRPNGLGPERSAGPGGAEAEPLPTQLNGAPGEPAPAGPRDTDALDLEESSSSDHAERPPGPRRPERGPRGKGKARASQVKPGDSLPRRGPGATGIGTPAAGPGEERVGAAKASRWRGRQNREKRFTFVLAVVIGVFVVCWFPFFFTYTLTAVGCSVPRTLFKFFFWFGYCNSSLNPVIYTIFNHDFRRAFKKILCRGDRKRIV

Assay [2] deals with T3, Muscarinic acetylcholine receptor M2 (Homo sapiens, UniProt P08172).
T3 sequence (P08172 whole entry): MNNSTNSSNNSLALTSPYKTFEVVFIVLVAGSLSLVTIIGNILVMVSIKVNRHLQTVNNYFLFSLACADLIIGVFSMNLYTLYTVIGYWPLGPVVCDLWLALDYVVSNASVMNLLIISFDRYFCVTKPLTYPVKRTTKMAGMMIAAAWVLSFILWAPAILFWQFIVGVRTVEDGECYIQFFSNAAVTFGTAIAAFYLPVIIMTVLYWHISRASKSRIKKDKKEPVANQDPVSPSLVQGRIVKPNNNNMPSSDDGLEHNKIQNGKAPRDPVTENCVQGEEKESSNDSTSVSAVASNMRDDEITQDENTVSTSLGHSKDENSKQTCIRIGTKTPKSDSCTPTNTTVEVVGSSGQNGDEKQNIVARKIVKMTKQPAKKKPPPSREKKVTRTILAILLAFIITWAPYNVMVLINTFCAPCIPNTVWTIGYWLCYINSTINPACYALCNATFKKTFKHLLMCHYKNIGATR

The next assay deals with Prothrombin (Homo sapiens, UniProt P00734). In kind it is functional.
A further assay has as its target Histamine H3 receptor (Homo sapiens, UniProt Q9Y5N1).
The target of assay [3] is 5-hydroxytryptamine receptor 2B (Homo sapiens, UniProt P41595). Type of assay: functional, cell-based.
Sequence of 5-hydroxytryptamine receptor 2B (P41595 whole entry): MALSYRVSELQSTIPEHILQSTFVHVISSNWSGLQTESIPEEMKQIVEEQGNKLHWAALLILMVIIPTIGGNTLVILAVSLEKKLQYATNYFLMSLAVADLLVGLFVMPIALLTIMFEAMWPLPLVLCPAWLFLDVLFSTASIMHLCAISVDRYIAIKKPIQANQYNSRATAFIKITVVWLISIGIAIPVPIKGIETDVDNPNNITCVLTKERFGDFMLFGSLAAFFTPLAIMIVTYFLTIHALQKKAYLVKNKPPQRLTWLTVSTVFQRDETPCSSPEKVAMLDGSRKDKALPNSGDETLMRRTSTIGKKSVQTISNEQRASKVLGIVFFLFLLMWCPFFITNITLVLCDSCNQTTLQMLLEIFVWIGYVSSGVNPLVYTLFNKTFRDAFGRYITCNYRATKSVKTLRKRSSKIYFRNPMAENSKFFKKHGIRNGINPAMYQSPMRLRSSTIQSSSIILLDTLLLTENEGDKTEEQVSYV
Assay [4] has as its target Voltage-gated inwardly rectifying potassium channel KCNH2 (Homo sapiens, UniProt Q12809). Type of assay: functional. The note with it: read-out: AC50.
The target in assay [5] is Vascular endothelial growth factor receptor 2 (Homo sapiens, UniProt P35968). Type of assay: functional.
Assay [6] concerns the target T4, Amine oxidase [flavin-containing] A (Homo sapiens, UniProt P21397).
T4 sequence (P21397 whole entry): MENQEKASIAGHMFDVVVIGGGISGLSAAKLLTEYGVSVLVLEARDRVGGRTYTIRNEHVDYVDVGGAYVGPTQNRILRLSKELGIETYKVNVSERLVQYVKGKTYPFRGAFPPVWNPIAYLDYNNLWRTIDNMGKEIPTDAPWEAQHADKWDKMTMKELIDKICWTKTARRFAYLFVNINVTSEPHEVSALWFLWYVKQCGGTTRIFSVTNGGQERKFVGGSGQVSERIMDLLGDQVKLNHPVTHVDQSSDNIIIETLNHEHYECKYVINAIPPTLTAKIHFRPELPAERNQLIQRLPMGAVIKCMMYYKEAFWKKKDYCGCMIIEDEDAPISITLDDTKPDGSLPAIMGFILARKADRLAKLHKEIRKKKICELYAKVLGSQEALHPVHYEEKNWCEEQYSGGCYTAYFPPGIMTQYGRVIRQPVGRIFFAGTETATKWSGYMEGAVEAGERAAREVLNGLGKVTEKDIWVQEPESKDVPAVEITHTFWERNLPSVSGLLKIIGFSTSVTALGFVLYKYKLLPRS
In kind it is functional.

A further assay concerns the target Mu-type opioid receptor (Homo sapiens, UniProt P35372).
Assay [7] has as its target cGMP-inhibited 3',5'-cyclic phosphodiesterase 3A (Homo sapiens, UniProt Q14432). In kind it is functional.
The target in assay [8] is T5, Prostaglandin G/H synthase 1 (Homo sapiens, UniProt P23219). In kind it is functional.
T5 sequence (P23219 whole entry): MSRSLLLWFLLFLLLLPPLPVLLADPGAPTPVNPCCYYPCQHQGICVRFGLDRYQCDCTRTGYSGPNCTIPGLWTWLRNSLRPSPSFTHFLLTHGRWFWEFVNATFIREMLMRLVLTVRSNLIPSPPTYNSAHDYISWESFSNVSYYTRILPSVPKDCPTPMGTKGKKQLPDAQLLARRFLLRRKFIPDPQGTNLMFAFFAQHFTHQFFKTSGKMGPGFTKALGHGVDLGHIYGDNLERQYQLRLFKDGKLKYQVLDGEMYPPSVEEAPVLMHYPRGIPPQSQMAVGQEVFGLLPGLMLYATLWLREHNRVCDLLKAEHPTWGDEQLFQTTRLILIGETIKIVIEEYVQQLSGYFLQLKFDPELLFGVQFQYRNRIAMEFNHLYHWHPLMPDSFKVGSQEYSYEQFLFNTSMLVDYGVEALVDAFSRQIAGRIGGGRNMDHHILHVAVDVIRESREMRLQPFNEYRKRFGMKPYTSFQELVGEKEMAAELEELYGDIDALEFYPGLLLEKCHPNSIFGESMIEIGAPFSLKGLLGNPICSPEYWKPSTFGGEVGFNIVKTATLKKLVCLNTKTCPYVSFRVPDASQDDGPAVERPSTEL
In assay [9] the target is T5, Prostaglandin G/H synthase 1. Type of assay: functional. The source holds these as a separate data set.
The next assay concerns the target T6, Thromboxane A2 receptor (Homo sapiens, UniProt P21731).
T6 sequence (P21731 whole entry): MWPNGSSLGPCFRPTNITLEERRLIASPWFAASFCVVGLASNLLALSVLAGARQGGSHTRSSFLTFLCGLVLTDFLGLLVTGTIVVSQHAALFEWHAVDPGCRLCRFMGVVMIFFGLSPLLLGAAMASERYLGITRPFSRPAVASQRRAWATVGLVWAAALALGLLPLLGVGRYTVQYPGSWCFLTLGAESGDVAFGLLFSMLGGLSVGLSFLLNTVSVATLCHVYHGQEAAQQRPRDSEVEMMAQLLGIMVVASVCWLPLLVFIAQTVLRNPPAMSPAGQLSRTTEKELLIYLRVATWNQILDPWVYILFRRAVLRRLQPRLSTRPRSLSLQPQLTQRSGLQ
In kind it is functional, cell-based.

SMILES strings stand for the structures.

What is called AC50 is the concentration giving half of the maximal activity seen.
Further: assay procedure not described here.

Sequence of Mu-type opioid receptor (P35372 whole entry): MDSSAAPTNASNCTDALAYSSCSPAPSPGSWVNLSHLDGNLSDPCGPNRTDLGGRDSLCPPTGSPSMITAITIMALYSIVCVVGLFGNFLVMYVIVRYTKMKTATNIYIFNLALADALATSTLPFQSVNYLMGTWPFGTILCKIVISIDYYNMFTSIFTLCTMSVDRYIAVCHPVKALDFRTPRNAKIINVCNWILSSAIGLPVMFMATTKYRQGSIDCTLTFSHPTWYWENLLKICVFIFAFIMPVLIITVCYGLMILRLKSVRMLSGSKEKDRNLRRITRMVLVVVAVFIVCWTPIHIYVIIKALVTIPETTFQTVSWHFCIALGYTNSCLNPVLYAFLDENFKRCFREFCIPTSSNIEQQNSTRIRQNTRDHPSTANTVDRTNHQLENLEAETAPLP
Sequence of Histamine H3 receptor (Q9Y5N1 whole entry): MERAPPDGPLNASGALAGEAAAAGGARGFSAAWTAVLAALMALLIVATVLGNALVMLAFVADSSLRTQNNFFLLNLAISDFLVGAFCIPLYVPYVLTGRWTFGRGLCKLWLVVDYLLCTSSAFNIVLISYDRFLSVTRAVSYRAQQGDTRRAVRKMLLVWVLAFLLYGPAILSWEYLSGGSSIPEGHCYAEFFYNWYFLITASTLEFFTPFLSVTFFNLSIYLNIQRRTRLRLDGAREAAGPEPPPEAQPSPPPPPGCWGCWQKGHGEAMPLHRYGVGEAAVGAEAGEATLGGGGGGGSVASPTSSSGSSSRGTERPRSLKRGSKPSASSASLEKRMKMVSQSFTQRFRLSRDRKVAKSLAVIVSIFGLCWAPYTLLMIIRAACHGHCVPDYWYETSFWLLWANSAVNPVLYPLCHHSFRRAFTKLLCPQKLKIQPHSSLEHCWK
Sequence of Voltage-gated inwardly rectifying potassium channel KCNH2 (Q12809 whole entry): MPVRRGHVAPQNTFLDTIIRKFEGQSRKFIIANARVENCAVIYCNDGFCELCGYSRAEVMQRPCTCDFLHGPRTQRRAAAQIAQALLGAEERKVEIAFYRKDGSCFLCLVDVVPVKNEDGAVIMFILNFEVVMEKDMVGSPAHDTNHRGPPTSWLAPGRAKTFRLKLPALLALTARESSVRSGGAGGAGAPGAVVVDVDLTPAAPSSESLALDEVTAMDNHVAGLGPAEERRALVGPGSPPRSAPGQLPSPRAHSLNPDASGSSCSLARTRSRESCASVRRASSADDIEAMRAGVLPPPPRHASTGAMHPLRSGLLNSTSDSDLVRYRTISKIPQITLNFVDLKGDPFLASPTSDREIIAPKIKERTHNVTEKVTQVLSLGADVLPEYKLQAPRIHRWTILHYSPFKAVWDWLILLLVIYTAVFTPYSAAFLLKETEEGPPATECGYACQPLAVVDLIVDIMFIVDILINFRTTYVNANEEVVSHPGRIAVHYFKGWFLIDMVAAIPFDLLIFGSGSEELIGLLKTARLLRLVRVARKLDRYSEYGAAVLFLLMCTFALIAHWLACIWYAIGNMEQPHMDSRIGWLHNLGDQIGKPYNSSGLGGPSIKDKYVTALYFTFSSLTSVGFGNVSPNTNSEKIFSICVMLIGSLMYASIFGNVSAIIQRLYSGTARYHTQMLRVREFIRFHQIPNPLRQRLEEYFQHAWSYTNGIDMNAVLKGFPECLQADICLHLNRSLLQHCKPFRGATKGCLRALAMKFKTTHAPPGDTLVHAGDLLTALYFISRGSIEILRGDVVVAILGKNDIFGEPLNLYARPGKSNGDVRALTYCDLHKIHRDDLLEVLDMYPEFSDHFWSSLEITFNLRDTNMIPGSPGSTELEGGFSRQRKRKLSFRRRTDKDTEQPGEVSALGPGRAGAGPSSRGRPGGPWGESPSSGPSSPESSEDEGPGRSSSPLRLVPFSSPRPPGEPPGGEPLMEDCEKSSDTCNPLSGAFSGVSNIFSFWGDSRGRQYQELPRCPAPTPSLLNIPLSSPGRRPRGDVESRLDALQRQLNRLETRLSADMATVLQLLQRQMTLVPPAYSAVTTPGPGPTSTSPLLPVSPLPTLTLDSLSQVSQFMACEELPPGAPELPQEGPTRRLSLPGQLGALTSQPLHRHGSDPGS
Sequence of cGMP-inhibited 3',5'-cyclic phosphodiesterase 3A (Q14432 whole entry): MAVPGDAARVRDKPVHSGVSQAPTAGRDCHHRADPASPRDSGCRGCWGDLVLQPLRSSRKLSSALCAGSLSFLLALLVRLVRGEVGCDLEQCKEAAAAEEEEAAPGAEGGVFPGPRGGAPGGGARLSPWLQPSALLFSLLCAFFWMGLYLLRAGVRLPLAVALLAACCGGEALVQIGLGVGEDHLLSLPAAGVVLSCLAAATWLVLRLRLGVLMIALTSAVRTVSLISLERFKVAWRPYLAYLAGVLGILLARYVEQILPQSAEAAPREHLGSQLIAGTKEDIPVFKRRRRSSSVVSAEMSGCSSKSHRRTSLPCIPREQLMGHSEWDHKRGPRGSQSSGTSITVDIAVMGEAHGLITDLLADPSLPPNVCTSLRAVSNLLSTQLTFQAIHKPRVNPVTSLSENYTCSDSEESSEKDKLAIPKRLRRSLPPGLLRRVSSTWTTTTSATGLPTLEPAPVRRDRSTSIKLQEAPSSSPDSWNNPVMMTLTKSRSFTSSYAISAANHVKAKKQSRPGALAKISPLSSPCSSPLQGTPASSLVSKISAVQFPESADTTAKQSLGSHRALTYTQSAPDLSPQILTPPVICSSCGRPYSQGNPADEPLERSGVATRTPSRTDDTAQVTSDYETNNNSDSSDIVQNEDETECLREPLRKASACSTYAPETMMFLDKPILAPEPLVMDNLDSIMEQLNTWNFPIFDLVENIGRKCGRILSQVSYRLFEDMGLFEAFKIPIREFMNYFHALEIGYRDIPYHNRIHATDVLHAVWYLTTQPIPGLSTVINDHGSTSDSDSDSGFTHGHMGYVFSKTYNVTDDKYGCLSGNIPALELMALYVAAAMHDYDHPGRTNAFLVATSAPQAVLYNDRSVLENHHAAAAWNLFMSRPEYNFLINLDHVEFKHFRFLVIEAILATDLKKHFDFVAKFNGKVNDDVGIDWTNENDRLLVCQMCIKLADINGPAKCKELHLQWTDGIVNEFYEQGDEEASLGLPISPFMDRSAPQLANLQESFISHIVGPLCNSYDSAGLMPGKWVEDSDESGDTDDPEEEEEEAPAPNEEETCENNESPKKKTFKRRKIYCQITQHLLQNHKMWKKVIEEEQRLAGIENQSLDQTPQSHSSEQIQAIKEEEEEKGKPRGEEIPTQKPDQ
Sequence of Acetylcholinesterase (P22303 whole entry): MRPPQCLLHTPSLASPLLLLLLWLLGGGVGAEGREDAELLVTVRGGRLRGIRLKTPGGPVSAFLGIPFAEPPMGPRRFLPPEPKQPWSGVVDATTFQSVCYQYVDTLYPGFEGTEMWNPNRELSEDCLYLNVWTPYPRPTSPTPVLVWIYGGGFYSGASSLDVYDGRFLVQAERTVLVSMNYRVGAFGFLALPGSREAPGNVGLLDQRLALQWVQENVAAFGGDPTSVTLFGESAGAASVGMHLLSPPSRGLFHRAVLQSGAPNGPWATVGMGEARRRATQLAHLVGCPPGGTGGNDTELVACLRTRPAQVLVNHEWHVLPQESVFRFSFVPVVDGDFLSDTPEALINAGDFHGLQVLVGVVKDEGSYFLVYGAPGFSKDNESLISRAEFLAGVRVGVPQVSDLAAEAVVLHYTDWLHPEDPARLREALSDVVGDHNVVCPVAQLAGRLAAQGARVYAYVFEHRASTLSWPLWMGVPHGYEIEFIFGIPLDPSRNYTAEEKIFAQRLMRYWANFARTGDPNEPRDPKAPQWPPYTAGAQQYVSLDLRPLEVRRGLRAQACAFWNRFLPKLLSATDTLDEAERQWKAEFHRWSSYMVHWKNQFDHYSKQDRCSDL

Take `CCN(CC)CCOC(=O)C(c1ccccc1)C1CCCCC1` (stereo not given) [DROFENINE]: the concentration at half-maximal activity (AC50) on Acetylcholinesterase was more than 30 µM; on Adenosine receptor A3, more than 30 µM; in [1], 24.1 µM; in assay [2] it was 0.0342 µM; at Prothrombin, more than 30 µM; at Histamine H3 receptor it was more than 30 µM. In addition, the AC50 in assay [3] is more than 30 µM; in assay [4] it was 4.7 µM; in [5], more than 30 µM; in assay [6] it was more than 30 µM; at Mu-type opioid receptor, 25.3 µM; in assay [7], more than 30 µM. Further, the AC50 (in assay [8]; in assay [9]; on Thromboxane A2 receptor) was more than 30 µM in each case.

For the compound `CC(=O)Oc1ccc2c(c1)CC[C@@H]1[C@@H]2CC[C@]2(C)[C@@H](O)CC[C@@H]12` [ESTRADIOL ACETATE], the AC50 on Acetylcholinesterase is more than 30 µM; at Adenosine receptor A3, 10.5 µM; in assay [1] it was more than 30 µM; in assay [2] it was more than 30 µM; on Prothrombin, more than 30 µM; on Histamine H3 receptor, more than 30 µM. In addition, the AC50 is more than 30 µM in assay [3]; more than 30 µM in assay [4]; more than 30 µM in assay [5]; more than 30 µM in assay [6]; 9.04 µM at Mu-type opioid receptor; more than 30 µM in [7]. Moreover, the half-maximal activity concentration (AC50) in assay [8] is more than 30 µM; in assay [9], more than 3 µM; at Thromboxane A2 receptor, more than 30 µM.

In the case of `CCOc1ccccc1C(N)=O` [ETHENZAMIDE], the AC50 (on Acetylcholinesterase; on Adenosine receptor A3; in [1]; in assay [2]; at Prothrombin; at Histamine H3 receptor) was more than 30 µM each time. For the same compound, the AC50 (in [3]; in assay [4]; in [5]; in [6]; at Mu-type opioid receptor; in [7]) was more than 30 µM in each case. Moreover, the AC50 (in assay [8]; in assay [9]; on Thromboxane A2 receptor) was more than 30 µM in each case.

Turning to `CCOC(=O)/C=C1\SC(N2CCCCC2)C(=O)N1C` (stereo not given) [ETOZOLIN], the AC50 (on Acetylcholinesterase; at Adenosine receptor A3; in assay [1]; in assay [2]; at Prothrombin; at Histamine H3 receptor) was more than 30 µM in each case. Further, the AC50 (in assay [3]; in assay [4]; in assay [5]; in [6]; at Mu-type opioid receptor; in assay [7]) was more than 30 µM each time. Moreover, the AC50 (in assay [8]; in assay [9]; at Thromboxane A2 receptor) was more than 30 µM in each case.

Take `O=c1[nH]c(=O)n([C@H]2C[C@H](O)[C@@H](CO)O2)cc1F` [FLOXURIDINE]: the AC50 (on Acetylcholinesterase; on Adenosine receptor A3; in assay [1]; in assay [2]; on Prothrombin; on Histamine H3 receptor) was more than 30 µM in each case. In addition, the AC50 (in assay [3]; in assay [4]; in assay [5]; in assay [6]; at Mu-type opioid receptor; in assay [7]) was more than 30 µM in each case. Further, the AC50 (in assay [8]; in assay [9]; on Thromboxane A2 receptor) was more than 30 µM in each case.

Consider `CCCCOC(=O)C(=O)[C@H]1[C@H](C)C[C@H]2[C@@H]3C[C@H](F)C4=CC(=O)C=C[C@]4(C)[C@H]3[C@@H](O)C[C@@]21C` [FLUOCORTIN BUTYL], for which the AC50 was more than 30 µM on Acetylcholinesterase; 7.82 µM on Adenosine receptor A3; more than 30 µM in [1]; more than 30 µM in [2]; more than 30 µM at Prothrombin; more than 30 µM at Histamine H3 receptor. For the same compound, the AC50 in [3] was more than 30 µM; in assay [4], 16 µM; in assay [5], more than 30 µM; in assay [6], more than 30 µM; on Mu-type opioid receptor it was more than 30 µM; in [7], more than 30 µM. Also, the AC50 (in [8]; in assay [9]; at Thromboxane A2 receptor) was more than 30 µM each time.

As for `N[C@H]1C(O)O[C@H](CO)[C@@H](O)[C@@H]1O` (stereo not given in full) [GLUCOSAMINE], the AC50 (at Acetylcholinesterase; on Adenosine receptor A3; in assay [1]; in assay [2]; at Prothrombin; at Histamine H3 receptor) was more than 30 µM each time. For the same compound, the AC50 (in assay [3]; in assay [4]; in assay [5]; in [6]; at Mu-type opioid receptor; in assay [7]) was more than 30 µM throughout. Also, the AC50 (in assay [8]; in assay [9]; on Thromboxane A2 receptor) was more than 30 µM in each case.

`Clc1cc(Cl)c(OCC#CI)cc1Cl` [HALOPROGIN]: the AC50 was more than 30 µM at Acetylcholinesterase; 0.946 µM at Adenosine receptor A3; 17.7 µM in assay [1]; more than 30 µM in [2]; more than 30 µM at Prothrombin; more than 30 µM on Histamine H3 receptor. The AC50 in assay [3] is more than 30 µM; in assay [4], 9.85 µM; in assay [5] it was more than 30 µM; in [6] it was more than 30 µM; on Mu-type opioid receptor it was 12.3 µM; in assay [7], more than 30 µM. Also, the AC50 (in [8]; in assay [9]; on Thromboxane A2 receptor) was more than 30 µM in each case.

Turning to `CCN(CC)CCNc1ccc(CO)c2sc3ccccc3c(=O)c12` [HYCANTHONE], the AC50 at Acetylcholinesterase was more than 30 µM; at Adenosine receptor A3 it was more than 30 µM; in assay [1], 1.73 µM; in assay [2], 4.47 µM; at Prothrombin, more than 30 µM; at Histamine H3 receptor it was 2.14 µM. Further, the AC50 is more than 30 µM in assay [3]; 3.6 µM in assay [4]; more than 30 µM in assay [5]; more than 30 µM in [6]; 23 µM at Mu-type opioid receptor; more than 30 µM in assay [7]. The AC50 (in assay [8]; in assay [9]; at Thromboxane A2 receptor) was more than 30 µM throughout.

The values are drawn from ChEMBL document CHEMBL5291721, “A preclinical secondary pharmacology resource illuminates target-adverse drug reaction associations of marketed drugs” (Nat Commun, 2023).
